Data on 16 molecules can be found in ChEMBL document CHEMBL1147095, “Chromosome-encoded narrow-spectrum Ambler class A beta-lactamase GIL-1 from Citrobacter gillenii” (Antimicrob Agents Chemother, 2007).

One may read the MIC as the lowest concentration found to suppress growth. For orientation: Km means the substrate concentration at which the rate is half of its maximum. In general, kcat refers to the maximal rate divided by the concentration of active sites. Broadly, the kcat/Km is the second-order rate constant that governs catalysis at low substrate concentration.

Values after ≈ are worked out from the molar mass of the structure shown.

For one series, the system named is Citrobacter gillenii. The series is described as follows: Antimicrobial activity against Citrobacter gillenii CIP 106783 after 18 hrs by […]. Format: functional. The conditions noted are these: CIP 106783, 18 h.
Series [1] relates to Escherichia coli. Put plainly: Antimicrobial activity against Escherichia coli DH10B expressing GIL1 after 18 hrs by […]. Type of series: functional.
In series [2] the target is T1, Gil1 (Citrobacter gillenii) (UniProt A4KCT8).
T1 sequence (whole entry): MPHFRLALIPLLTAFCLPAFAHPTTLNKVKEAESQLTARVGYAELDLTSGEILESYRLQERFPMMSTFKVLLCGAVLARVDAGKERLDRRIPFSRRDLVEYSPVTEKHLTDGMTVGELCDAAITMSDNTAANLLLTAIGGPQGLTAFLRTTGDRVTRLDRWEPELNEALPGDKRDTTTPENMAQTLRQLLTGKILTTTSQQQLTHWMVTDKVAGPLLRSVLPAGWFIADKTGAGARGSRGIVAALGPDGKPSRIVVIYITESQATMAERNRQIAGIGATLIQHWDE
The series is described as follows: Ratio of kcat to Km of Citrobacter gillenii CIP 106783 Beta-lactamase GIL1 expressed in Escherichia coli DH10B relative to benzyl-penicillin. On the set-up: unit not given here.

For series [3], the system named is Escherichia coli. Put plainly: Antimicrobial activity against Escherichia coli DH10B after 18 hrs by […]. Type of series: functional. Background: Agar diffusion results depend on both activity and mobility in agar.
Substrate in series [4]: CCN1CCN(C(=O)N[C@@H](C(=O)N[C@@H]2C(=O)N3[C@@H]2SC(C)(C)[C@@H]3C(=O)O)c2ccccc2)C(=O)C1=O
Put plainly: (§1) Activity of Citrobacter gillenii CIP 106783 Beta-lactamase GIL1 expressed in Escherichia coli DH10B.

Substrate in series [5]: C[C@@H](O)[C@H]1C(=O)N2C(C(=O)O)=C(SCCNC=N)C[C@H]12
Described as §1.

Substrate in series [6]: C[C@H]1[C@H](NC(=O)/C(=N\OC(C)(C)C(=O)O)c2csc(N)n2)C(=O)N1S(=O)(=O)O
The series is described as §1.

Substrate in series [7]: CO/N=C(\C(=O)N[C@@H]1C(=O)N2C(C(=O)O)=C(COC(N)=O)CS[C@H]12)c1ccco1
Described as §1.

Substrate in series [8]: CO/N=C(\C(=O)N[C@@H]1C(=O)N2C(C(=O)[O-])=C(C[N+]3(C)CCCC3)CS[C@H]12)c1csc(N)n1
The description is as §1.

Substrate in series [9]: CO/N=C(\C(=O)N[C@@H]1C(=O)N2C(C(=O)O)=C(COC(C)=O)CS[C@H]12)c1csc(N)n1
The description is as §1.

Substrate in series [10]: CC1(C)S[C@@H]2[C@H](NC(=O)Cc3ccccc3)C(=O)N2[C@H]1C(=O)O
The series is described as §1.

Substrate in series [11]: CC(C)(O/N=C(\C(=O)N[C@@H]1C(=O)N2C(C(=O)[O-])=C(C[n+]3ccccc3)CS[C@H]12)c1csc(N)n1)C(=O)O
The series is described as §1.

Substrate in series [12]: CC1(C)S[C@@H]2[C@H](NC(=O)[C@H](N)c3ccc(O)cc3)C(=O)N2[C@H]1C(=O)O
The series is described as §1.

Substrate in series [13]: CC1(C)S[C@@H]2[C@H](NC(=O)[C@H](C(=O)O)c3ccsc3)C(=O)N2[C@H]1C(=O)O
The description is as §1.

Substrate in series [14]: CO/N=C(\C(=O)N[C@@H]1C(=O)N2C(C(=O)[O-])=C(C[n+]3cccc4c3CCC4)CS[C@H]12)c1csc(N)n1
The description is as §1.

Substrate in series [15]: CC(=O)OCC1=C(C(=O)O)N2C(=O)[C@@H](NC(=O)Cc3cccs3)[C@H]2SC1
Described as §1.

Regarding `CO/N=C(\C(=O)N[C@@H]1C(=O)N2C(C(=O)[O-])=C(C[N+]3(C)CCCC3)CS[C@H]12)c1csc(N)n1`, the MIC in the series with Citrobacter gillenii came to 0.06 µg/mL (≈ 0.125 µM); in the series on Escherichia coli [1], 0.12 µg/mL (≈ 0.25 µM). Moreover, the Ratio in series [2] was found to be 0.5.
For `CC1(C)S[C@@H]2[C@H](NC(=O)Cc3ccccc3)C(=O)N2[C@H]1C(=O)O`, the Ratio in series [2] stood at 100.
Turning to `CC1(C)S[C@@H]2[C@H](NC(=O)[C@H](N)c3ccc(O)cc3)C(=O)N2[C@H]1C(=O)O` [AMOXICILLIN], the MIC in the series with Citrobacter gillenii was 16 µg/mL (≈ 43.8 µM); in the series with Escherichia coli [3], 2 µg/mL (≈ 5.47 µM); with Escherichia coli [1], above 512 µg/mL. Also, the Ratio in series [2] was determined as 81.
For `C[C@H]1[C@H](NC(=O)/C(=N\OC(C)(C)C(=O)O)c2csc(N)n2)C(=O)N1S(=O)(=O)O` [AZTREONAM], the MIC worked out at 0.06 µg/mL (≈ 0.138 µM) in the series with Citrobacter gillenii and 0.12 µg/mL (≈ 0.276 µM) against Escherichia coli [1]. Besides, the Ratio in series [2] was determined as 0.02.
`CO/N=C(\C(=O)N[C@@H]1C(=O)N2C(C(=O)O)=C(COC(C)=O)CS[C@H]12)c1csc(N)n1` [CEFOTAXIME]: the results for the MIC against Citrobacter gillenii, in the series with Escherichia coli [3] and in the series with Escherichia coli [1] were 0.06 µg/mL (≈ 0.132 µM), 0.06 µg/mL (≈ 0.132 µM) and 1 µg/mL (≈ 2.2 µM), respectively. In [2], the Ratio is 0.2.
As for `CO[C@@]1(NC(=O)Cc2cccs2)C(=O)N2C(C(=O)O)=C(COC(N)=O)CS[C@@H]21` [CEFOXITIN], the minimum inhibitory concentration (MIC) turned out to be 1 µg/mL (≈ 2.34 µM) with Citrobacter gillenii, 2 µg/mL (≈ 4.68 µM) in the series with Escherichia coli [3] and 2 µg/mL (≈ 4.68 µM) against Escherichia coli [1].
Regarding `CO/N=C(\C(=O)N[C@@H]1C(=O)N2C(C(=O)[O-])=C(C[n+]3cccc4c3CCC4)CS[C@H]12)c1csc(N)n1` [CEFPIROME], the minimal inhibitory concentration (MIC) in the series on Citrobacter gillenii was 0.06 µg/mL (≈ 0.117 µM); in the series with Escherichia coli [3], 0.06 µg/mL (≈ 0.117 µM); in the series with Escherichia coli [1] it was 0.25 µg/mL (≈ 0.486 µM). Also, in [2], the Ratio is 1.9.
`CC(C)(O/N=C(\C(=O)N[C@@H]1C(=O)N2C(C(=O)[O-])=C(C[n+]3ccccc3)CS[C@H]12)c1csc(N)n1)C(=O)O` [CEFTAZIDIME]: the MIC was 0.06 µg/mL (≈ 0.11 µM) against Citrobacter gillenii, 0.06 µg/mL (≈ 0.11 µM) in the series on Escherichia coli [3] and 0.5 µg/mL (≈ 0.915 µM) with Escherichia coli [1]. In addition, the Ratio in series [2] turned out to be 0.01.
Take `CO/N=C(\C(=O)N[C@@H]1C(=O)N2C(C(=O)O)=C(CSc3nc(=O)c(O)nn3C)CS[C@H]12)c1csc(N)n1` [CEFTRIAXONE]: the minimum inhibitory concentration (MIC) in the series on Citrobacter gillenii, in the series on Escherichia coli [3] and against Escherichia coli [1] was 0.06 µg/mL (≈ 0.108 µM) in each case.
In the case of `CO/N=C(\C(=O)N[C@@H]1C(=O)N2C(C(=O)O)=C(COC(N)=O)CS[C@H]12)c1ccco1` [CEFUROXIME], the figures for the MIC against Citrobacter gillenii, with Escherichia coli [3] and in the series on Escherichia coli [1] were 2 µg/mL (≈ 4.71 µM), 2 µg/mL (≈ 4.71 µM) and 8 µg/mL (≈ 18.9 µM), respectively. Moreover, the Ratio in [2] is 0.4.
For `CC(=O)OCC1=C(C(=O)O)N2C(=O)[C@@H](NC(=O)Cc3cccs3)[C@H]2SC1` [CEPHALOTHIN], the MIC with Citrobacter gillenii was determined as 2 µg/mL (≈ 5.04 µM); with Escherichia coli [3], 2 µg/mL (≈ 5.04 µM); in the series with Escherichia coli [1] it was 8 µg/mL (≈ 20.2 µM). In [2], the Ratio was found to be 11.
With `C[C@@H](O)[C@H]1C(=O)N2C(C(=O)O)=C(SCCNC=N)C[C@H]12` [IMIPENEM ANHYDROUS], the minimum inhibitory concentration (MIC) in the series on Citrobacter gillenii is 0.06 µg/mL (≈ 0.2 µM). In addition, the Ratio in [2] is below 0.01.
Turning to `CO[C@@]1(NC(=O)C(C(=O)O)c2ccc(O)cc2)C(=O)N2C(C(=O)O)=C(CSc3nnnn3C)CO[C@@H]21` (stereo partly specified) [MOXALACTAM], the MIC against Citrobacter gillenii worked out at 0.12 µg/mL (≈ 0.231 µM); against Escherichia coli [3] it was 0.12 µg/mL (≈ 0.231 µM); against Escherichia coli [1], 0.25 µg/mL (≈ 0.48 µM).
For the molecule `CCN1CCN(C(=O)N[C@@H](C(=O)N[C@@H]2C(=O)N3[C@@H]2SC(C)(C)[C@@H]3C(=O)O)c2ccccc2)C(=O)C1=O` [PIPERACILLIN], the MIC in the series with Citrobacter gillenii is 2 µg/mL (≈ 3.86 µM); with Escherichia coli [3] it was 1 µg/mL (≈ 1.93 µM); in the series on Escherichia coli [1], 32 µg/mL (≈ 61.8 µM). Also, the Ratio in series [2] stood at 61.
In the same order, the values of `CC1(C)S[C@@H]2[C@H](NC(=O)[C@H](C(=O)O)c3ccsc3)C(=O)N2[C@H]1C(=O)O` [TICARCILLIN] are 64 µg/mL (≈ 166 µM), 1 µg/mL (≈ 2.6 µM), above 512 µg/mL and 180.

B1: Gil1 (Citrobacter gillenii), A4KCT8 (protein)
chain: MPHFRLALIPLLTAFCLPAFAHPTTLNKVKEAESQLTARVGYAELDLTSGEILESYRLQERFPMMSTFKVLLCGAVLARVDAGKERLDRRIPFSRRDLVEYSPVTEKHLTDGMTVGELCDAAITMSDNTAANLLLTAIGGPQGLTAFLRTTGDRVTRLDRWEPELNEALPGDKRDTTTPENMAQTLRQLLTGKILTTTSQQQLTHWMVTDKVAGPLLRSVLPAGWFIADKTGAGARGSRGIVAALGPDGKPSRIVVIYITESQATMAERNRQIAGIGATLIQHWDE
Consider B1, for which the Km in [4] came to 90 µM; in [5], 2980 µM; in series [6] it was 938 µM; in series [7] it was 88 µM; in series [8], 2680 µM; in series [9], 714 µM. The Km in series [10] came to 51 µM; in series [11], 1750 µM; in series [12] it was 84 µM; in series [13] it was 10 µM; in series [14] it was 304 µM; in series [15], 62 µM. The kcat in series [4] was 306 s⁻¹; in [5], 0.2 s⁻¹; in series [6] it was 0.8 s⁻¹; in [7] it was 2 s⁻¹; in series [8] it was 77 s⁻¹; in series [9] it was 7 s⁻¹. The kcat in series [10] is 286 s⁻¹; in [11], 1 s⁻¹; in [12], 381 s⁻¹; in series [13], 100 s⁻¹; in [14], 32 s⁻¹; in series [15] it was 37 s⁻¹. The kcat/Km in series [4] was 3.4e+06 M⁻¹ s⁻¹; in series [5], 500 M⁻¹ s⁻¹; in series [6], 1000 M⁻¹ s⁻¹; in [7], 23000 M⁻¹ s⁻¹; in series [8] it was 29000 M⁻¹ s⁻¹; in series [9], 10000 M⁻¹ s⁻¹. Further, the kcat/Km in [10] was found to be 5.6e+06 M⁻¹ s⁻¹; in [11], 600 M⁻¹ s⁻¹; in series [12], 4.54e+06 M⁻¹ s⁻¹; in [13], 1e+07 M⁻¹ s⁻¹; in [14] it was 106000 M⁻¹ s⁻¹; in series [15], 598000 M⁻¹ s⁻¹.
